From patent US10000454B2, “Antidiabetic tricyclic compounds” (Merck Sharp & Dohme Corp., priority 2014, dated 2018)

Columns and labels:
[1] = molecular target: T1, Human GPR40 (Homo sapiens, UniProt O14842); experiment: FLIPR assay, agonist-induced calcium mobilization; format: cell-based; design: expressed in transfected cells; details: GPR40/CHO NFAT BLA cells
Outline: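 CHO NFAT-BLA cells stably expressing human GPR40 were loaded 100 min at room temperature with buffer (HMS, 0.1% BSA, 20 mM HEPES, 2.5 mM probenecid, pH 7.4) containing 8 μM fluo-4 AM. The agonist-induced calcium rise after compound addition was read as FLIPR fluorescence.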

[2] = molecular target: T1, Human GPR40; experiment: Inositol Phosphate Turnover (IP1) Assay; format: cell-based; design: expressed in transfected cells; host or cells: HEK cells (stably expressing the aequorin reporter); details: HEK cells stably expressing human GPR40, CisBio IP-One kit
Outline: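 HEK cells stably expressing human GPR40, plated 15,000 per well and incubated 16 h, then exposed to compound for 60 min at 37 degrees in stimulation buffer. IP1 measured by HTRF (IP-One) as 665/620 nm ratio, converted to IP1 concentration via a standard curve.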

T1 sequence (O14842 whole entry): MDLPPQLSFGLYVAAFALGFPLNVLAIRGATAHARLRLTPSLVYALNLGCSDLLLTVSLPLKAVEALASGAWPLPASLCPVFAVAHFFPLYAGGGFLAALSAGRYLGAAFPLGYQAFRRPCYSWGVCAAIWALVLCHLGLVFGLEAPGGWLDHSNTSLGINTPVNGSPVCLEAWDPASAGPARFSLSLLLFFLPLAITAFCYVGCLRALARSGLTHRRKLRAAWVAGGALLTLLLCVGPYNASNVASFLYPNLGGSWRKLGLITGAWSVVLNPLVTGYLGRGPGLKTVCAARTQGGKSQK

| SMILES | EC50 [1] [nM] | EC50 [2] [nM] |
| --- | --- | --- |
| O=C(O)[C@H]1[C@@H]2Cc3cc(OCc4ccc5c(c4)N(c4ccccc4)CCO5)ncc3[C@@H]21 [Example 61, (5aR,6S,6aS)-3-((4-phenyl-3,4-dihydro-2H-benzo[b][1,4]oxazin-6-yl)methoxy)-5,5a,6,6a-tetrahydrocyclopropa[4,5]cyclopenta[1,2-c]pyridine-6-carboxylic acid] | 40.5 | 653 |
| CC1(C)CNC(c2ccccc2C(F)(F)F)c2c1ccc(COc1cc3c(cn1)[C@H]1[C@@H](C3)[C@@H]1C(=O)O)c2F (stereo partly drawn) [Example 74, (5aR,6S,6aS)-3-((8-fluoro-4,4-dimethyl-1-(2-(trifluoromethyl)phenyl)-1,2,3,4-tetrahydroisoquinolin-7-yl)methoxy)-5,5a,6,6a-tetrahydrocyclopropa[4,5]cyclopenta[1,2-c]pyridine-6-carboxylic acid] | 6.75 | 4.99 |
| COc1ncccc1C1CC(C)(C)c2ccc(COc3cc4c(cn3)[C@H]3[C@@H](C4)[C@@H]3C(=O)O)cc21 (stereo partly drawn) [Example 14, (5aR,6S,6aS)-3-((3-(2-methoxypyridin-3-yl)-1,1-dimethyl-2,3-dihydro-1H-inden-5-yl)methoxy)-5,5a,6,6a-tetrahydro-cyclopropa[4,5]cyclopenta [1,2-c]pyridine-6-carboxylic acid] | 11.6 | 21.8 |
| Cc1ccccc1N1CCCc2ccc(COc3ccc4c(c3)C[C@H]3[C@H](C(=O)O)[C@@H]43)cc21 [Example 68, (1S,1aS,6aR)-4-((1-(o-tolyl)-1,2,3,4-tetrahydroquinolin-7-yl)methoxy)-1,1a,6,6a-tetrahydrocyclopropa[a] indene-1-carboxylic acid] | 24.7 | 64.9 |
| O=C(O)[C@H]1[C@@H]2Cc3cc(OCc4cc5c(cc4F)C(F)(F)CC5c4ccccc4C(F)(F)F)ncc3[C@@H]21 (single isomer, unassigned) [Example 70] | 5.99 | 15.8 |
| Cn1cnc2cccc(C3CC(C)(C)c4ccc(COc5cc6c(cn5)[C@H]5[C@@H](C6)[C@@H]5C(=O)O)cc43)c21 (stereo partly drawn) [Example 16, (5aR,6S,6aS)-3-((1,1-dimethyl-3-(1-methyl-1H-benzo[d]imidazol-7-yl)-2,3-dihydro-1H-inden-5-yl)methoxy)-5,5a,6,6a-tetrahydrocyclopropa[4,5] cyclopenta[1,2-c]pyridine-6-carboxylic acid] | 7.29 | 27.7 |
| O=C(O)[C@H]1[C@@H]2Cc3cc(OCc4ccc5c(c4)N(c4ccccc4)CC5)ncc3[C@@H]21 [Example 35, (5aR,6S,6aS)-3-((1-(2-phenyl)indolin-6-yl)methoxy)-5,5a,6,6a-tetrahydrocyclopropa[4,5] cyclopenta[1,2-c]pyridine-6-carboxylicacid] | 53.4 | 168 |
| CC1CCc2ccc(COc3cc4c(cn3)[C@H]3[C@@H](C4)[C@@H]3C(=O)O)cc2C1c1ccccc1C(F)(F)F (stereo partly drawn) [Example 46, (5aR,6S,6aS)-3-((7-methyl-8-(2-(trifluoromethyl)phenyl)-5,6,7,8-tetrahydronaphthalen-2-yl)methoxy)-5,5a,6,6a-tetrahydrocyclopropa[4,5]cyclopenta[1,2-c]pyridine-6-carboxylic acid] | 8.74 | 79.6 |
| Cc1nc(OCCC(C)(C)O)ccc1C1CCCc2ccc(COc3cc4c(cn3)[C@H]3[C@@H](C4)[C@@H]3C(=O)O)cc21 (stereo partly drawn) [Example 30, (5aR,6S,6aS)-3-((8-(6-(3-hydroxy-3-methylbutoxy)-2-methylpyridin-3-yl)-5,6,7,8-tetrahydronaphthalen-2-yl)methoxy)-5,5a,6,6a-tetrahydrocyclopropa[4,5] cyclopenta[1,2-c]pyridine-6-carboxylic acid] | 33 | 35 |
| Cc1c(COc2cc3c(cn2)[C@H]2[C@@H](C3)[C@@H]2C(=O)O)ccc2c1C(c1ccccc1C(F)(F)F)CCC2 (stereo partly drawn) [Example 43, (5aR,6S,6aS)-3-((1-methyl-8-(2-(trifluoro-methyl)phenyl)-5,6,7,8-tetrahydro-naphthalen-2-yl)methoxy)-5,5a,6,6a-tetrahydrocyclopropa[4,5] cyclopenta[1,2-c]pyridine-6-carboxylic acid] | 38.8 | 70.8 |
